Laboratory results reported in PubChem BioAssay (NCI).
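Step 1: Grow cells in 96-well plates. Step 2: Expose to compound for 48 hours at 5 concentrations. Step 3: Interpolate endpoints linearly; if unreached, use highest concentration. TGI: total growth inhibition.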

Tests used:
Experiment in all cases: NCI tumour cell line growth inhibition, 48 h
[1] = tested on: 786-0 renal
[2] = tested on: A498 renal
[3] = tested on: A549 NSCLC
[4] = tested on: ACHN renal
[5] = tested on: CCRF-CEM leukemia
[6] = tested on: COLO 205 colon
[7] = tested on: DLD-1 colon
[8] = tested on: DMS 114 small cell lung
[9] = tested on: DMS 273 small cell lung
[10] = tested on: EKVX NSCLC
[11] = tested on: HCC-2998 colon
[12] = tested on: HCT-116 colon
[13] = tested on: HL-60(TB) leukemia
[14] = tested on: HOP-18 NSCLC
[15] = tested on: HOP-62 NSCLC
[16] = tested on: HOP-92 NSCLC
[17] = tested on: HT29 colon
[18] = tested on: IGROV1 ovarian
[19] = tested on: K-562 leukemia
[20] = tested on: KM12 colon
[21] = tested on: KM20L2 colon
[22] = tested on: LOX IMVI melanoma
[23] = tested on: LXFL 529 NSCLC
[24] = tested on: M14 melanoma
[25] = tested on: M19-MEL melanoma
[26] = tested on: MALME-3M melanoma
[27] = tested on: MOLT-4 leukemia
[28] = tested on: NCI-H226 lung
[29] = tested on: NCI-H23 lung
[30] = tested on: NCI-H522 lung
[31] = tested on: OVCAR-3 ovarian
[32] = tested on: OVCAR-5 ovarian
[33] = tested on: OVCAR-8 ovarian
[34] = tested on: RPMI-8226 leukemia
[35] = tested on: RXF 393 renal
[36] = tested on: SF-268 CNS
[37] = tested on: SF-295 CNS
[38] = tested on: SF-539 CNS
[39] = tested on: SK-MEL-2 melanoma
[40] = tested on: SK-MEL-28 melanoma
[41] = tested on: SK-OV-3 ovarian
[42] = tested on: SN12C renal
[43] = tested on: SNB-19 CNS
[44] = tested on: SNB-75 CNS
[45] = tested on: SNB-78 CNS
[46] = tested on: SR leukemia
[47] = tested on: SW-620 colon
[48] = tested on: TK-10 renal
[49] = tested on: U251 CNS
[50] = tested on: UACC-257 melanoma
[51] = tested on: UACC-62 melanoma
[52] = tested on: UO-31 renal
[53] = tested on: XF 498 CNS
[54] = tested on: HCT-15 colon
[55] = tested on: NCI-H460 lung
[56] = tested on: BT-549 breast
[57] = tested on: CAKI-1 renal
[58] = tested on: DU-145 prostate
[59] = tested on: HS 578T breast
[60] = tested on: MCF7 breast
[61] = tested on: MDA-MB-231 breast
[62] = tested on: MDA-MB-435
[63] = tested on: MDA-N
[64] = tested on: NCI/ADR-RES ovarian
[65] = tested on: OVCAR-4 ovarian
[66] = tested on: PC-3 prostate
[67] = tested on: SK-MEL-5 melanoma
[68] = tested on: T-47D breast

Compound COC(=O)C1Cc2c([nH]c3ccccc23)[C@H](CC(C)C)N1 (stereo partly drawn) has a TGI [1] greater than 100 µM, a TGI [2] greater than 100 µM and a TGI [3] greater than 100 µM. The TGI [4] was greater than 100 µM, the TGI [5] was greater than 100 µM and the TGI [6] was greater than 100 µM. The TGI [7] was greater than 100 µM, the TGI [8] was greater than 100 µM and the TGI [9] was greater than 100 µM. For the same compound, the TGI [10] was greater than 100 µM, the TGI [11] was greater than 100 µM and the TGI [12] was greater than 100 µM. For the same compound, the TGI [13] was greater than 100 µM, the TGI [14] was greater than 100 µM and the TGI [15] was greater than 100 µM. For the same compound, the TGI [16] was greater than 100 µM, the TGI [17] was greater than 100 µM and the TGI [18] was greater than 100 µM. It also gave a TGI [19] greater than 100 µM, a TGI [20] greater than 100 µM and a TGI [21] greater than 100 µM. For the same compound, the TGI [22] was greater than 100 µM, the TGI [23] was greater than 100 µM and the TGI [24] was greater than 100 µM. The TGI [25] was greater than 100 µM, the TGI [26] was greater than 100 µM and the TGI [27] was greater than 100 µM. It also gave a TGI [28] greater than 100 µM, a TGI [29] greater than 100 µM and a TGI [30] greater than 100 µM. It also gave a TGI [31] greater than 100 µM, a TGI [32] greater than 100 µM and a TGI [33] greater than 100 µM. For the same compound, the TGI [34] was greater than 100 µM, the TGI [35] was greater than 100 µM and the TGI [36] was greater than 100 µM. For the same compound, the TGI [37] was greater than 100 µM, the TGI [38] was greater than 100 µM and the TGI [39] was greater than 100 µM. It also gave a TGI [40] greater than 100 µM, a TGI [41] greater than 100 µM and a TGI [42] greater than 100 µM. For the same compound, the TGI [43] was greater than 100 µM, the TGI [44] was greater than 100 µM and the TGI [45] was greater than 100 µM. It also gave a TGI [46] greater than 100 µM, a TGI [47] greater than 100 µM and a TGI [48] greater than 100 µM. The TGI [49] was greater than 100 µM, the TGI [50] was greater than 100 µM and the TGI [51] was greater than 100 µM. For the same compound, the TGI [52] was greater than 100 µM and the TGI [53] was greater than 100 µM.

Cc1ccc(S(=O)(=O)NCCCN(CCCNS(=O)(=O)c2ccc(C)cc2)S(=O)(=O)c2ccc(C)cc2)cc1 gave a TGI [1] greater than 100 µM, a TGI [3] greater than 100 µM and a TGI [4] greater than 100 µM. It also gave a TGI [5] greater than 100 µM, a TGI [6] greater than 100 µM and a TGI [7] greater than 100 µM. For the same compound, the TGI [8] was greater than 100 µM, the TGI [9] was greater than 100 µM and the TGI [11] was greater than 100 µM. For the same compound, the TGI [12] was greater than 100 µM, the TGI [54] was greater than 100 µM and the TGI [13] was greater than 100 µM. The TGI [15] was greater than 100 µM, the TGI [18] was greater than 100 µM and the TGI [19] was greater than 100 µM. For the same compound, the TGI [20] was greater than 100 µM, the TGI [21] was greater than 100 µM and the TGI [22] was greater than 100 µM. It also gave a TGI [23] greater than 100 µM, a TGI [24] greater than 100 µM and a TGI [25] greater than 100 µM. For the same compound, the TGI [26] was greater than 100 µM, the TGI [27] was greater than 100 µM and the TGI [28] was greater than 100 µM. It also gave a TGI [29] greater than 100 µM, a TGI [55] greater than 100 µM and a TGI [30] greater than 100 µM. It also gave a TGI [31] greater than 100 µM, a TGI [33] greater than 100 µM and a TGI [34] greater than 100 µM. The TGI [35] was greater than 100 µM, the TGI [36] was greater than 100 µM and the TGI [37] was greater than 100 µM. It also gave a TGI [38] greater than 100 µM, a TGI [40] greater than 100 µM and a TGI [41] greater than 100 µM. It also gave a TGI [42] greater than 100 µM, a TGI [43] greater than 100 µM and a TGI [44] greater than 100 µM. The TGI [45] was greater than 100 µM, the TGI [46] was greater than 100 µM and the TGI [47] was greater than 100 µM. For the same compound, the TGI [48] was greater than 100 µM, the TGI [49] was greater than 100 µM and the TGI [50] was greater than 100 µM. It also gave a TGI [51] greater than 100 µM and a TGI [52] greater than 100 µM.

In the case of CN(Cc1c2ccccc2cc2ccccc12)S(=O)(=O)c1ccc(-c2c3nc(c(-c4ccc(S(=O)(=O)N(C)Cc5c6ccccc6cc6ccccc56)cc4)c4ccc([nH]4)c(-c4ccc(S(=O)(=O)N(C)Cc5c6ccccc6cc6ccccc56)cc4)c4nc(c(-c5ccc(S(=O)(=O)N(C)Cc6c7ccccc7cc7ccccc67)cc5)c5ccc2[nH]5)C=C4)C=C3)cc1, the TGI [1] is reported as greater than 100 µM, the TGI [2] is reported as greater than 100 µM and the TGI [3] is reported as greater than 100 µM. The TGI [4] was greater than 100 µM, the TGI [56] was greater than 100 µM and the TGI [57] was greater than 100 µM. It also gave a TGI [5] greater than 100 µM, a TGI [6] greater than 100 µM and a TGI [58] greater than 100 µM. It also gave a TGI [10] greater than 100 µM, a TGI [11] greater than 100 µM and a TGI [12] greater than 100 µM. It also gave a TGI [54] greater than 100 µM, a TGI [13] greater than 100 µM and a TGI [15] of 84.6 µM. The TGI [16] was 83.4 µM, the TGI [59] was greater than 100 µM and the TGI [17] was greater than 100 µM. For the same compound, the TGI [18] was greater than 100 µM, the TGI [19] was greater than 100 µM and the TGI [20] was greater than 100 µM. It also gave a TGI [22] greater than 100 µM, a TGI [24] greater than 100 µM and a TGI [26] greater than 100 µM. The TGI [60] was greater than 100 µM, the TGI [61] was greater than 100 µM and the TGI [62] was greater than 100 µM. The TGI [63] was greater than 100 µM, the TGI [27] was greater than 100 µM and the TGI [29] was greater than 100 µM. For the same compound, the TGI [55] was greater than 100 µM, the TGI [30] was greater than 100 µM and the TGI [64] was greater than 100 µM. It also gave a TGI [31] greater than 100 µM, a TGI [65] greater than 100 µM and a TGI [32] greater than 100 µM. The TGI [33] was greater than 100 µM, the TGI [66] was greater than 100 µM and the TGI [34] was greater than 100 µM. It also gave a TGI [35] greater than 100 µM, a TGI [36] greater than 100 µM and a TGI [37] greater than 100 µM. For the same compound, the TGI [38] was greater than 100 µM, the TGI [39] was greater than 100 µM and the TGI [40] was greater than 100 µM. It also gave a TGI [67] greater than 100 µM, a TGI [41] greater than 100 µM and a TGI [42] greater than 100 µM. For the same compound, the TGI [43] was greater than 100 µM, the TGI [44] was 56.8 µM and the TGI [46] was greater than 100 µM. It also gave a TGI [47] greater than 100 µM, a TGI [68] greater than 100 µM and a TGI [48] greater than 100 µM. It also gave a TGI [49] greater than 100 µM, a TGI [50] greater than 100 µM and a TGI [51] greater than 100 µM. The TGI [52] was greater than 100 µM.

CC(=O)Oc1c(-c2ccccc2)[nH]c2cc([N+](=O)[O-])c(/C(Cl)=C/c3ccccc3)cc12 was tested, and the TGI [1] was 25.5 µM, the TGI [2] was 23.6 µM and the TGI [3] was 44.5 µM. It also gave a TGI [4] of 46.6 µM, a TGI [57] of 69.2 µM and a TGI [5] of 29.5 µM. The TGI [6] was 19.6 µM, the TGI [7] was greater than 100 µM and the TGI [8] was 7.72 µM. For the same compound, the TGI [10] was 59.3 µM, the TGI [12] was 17.3 µM and the TGI [13] was 10.7 µM. For the same compound, the TGI [15] was 61.5 µM, the TGI [16] was 18.3 µM and the TGI [17] was 11.1 µM. The TGI [18] was 65.8 µM, the TGI [19] was greater than 100 µM and the TGI [20] was 16.3 µM. It also gave a TGI [21] of 18.6 µM, a TGI [23] of 18.1 µM and a TGI [24] of 23.1 µM. For the same compound, the TGI [25] was 19.4 µM, the TGI [27] was 13.8 µM and the TGI [28] was 18.1 µM. The TGI [29] was 11.6 µM, the TGI [55] was 70.2 µM and the TGI [30] was 18.5 µM. For the same compound, the TGI [31] was 46.8 µM, the TGI [65] was 39.3 µM and the TGI [32] was 17.7 µM. It also gave a TGI [33] of 17.7 µM, a TGI [34] greater than 100 µM and a TGI [36] greater than 100 µM. For the same compound, the TGI [37] was 22.5 µM, the TGI [39] was 30.8 µM and the TGI [40] was 25.2 µM. The TGI [67] was 3.75 µM, the TGI [41] was 83.9 µM and the TGI [42] was 19.4 µM. It also gave a TGI [43] of 94.2 µM, a TGI [44] greater than 100 µM and a TGI [45] of 52.6 µM. For the same compound, the TGI [46] was 27.4 µM, the TGI [47] was 29.3 µM and the TGI [48] was 64.4 µM. For the same compound, the TGI [49] was 19.8 µM, the TGI [50] was 27.7 µM and the TGI [51] was 19.6 µM. For the same compound, the TGI [52] was 27.6 µM and the TGI [53] was 19.3 µM.
